Patent EP0903346A1, “SYDNONE IMINE DERIVATIVES” (Chugai Seiyaku Kabushiki Kaisha, priority 1995, dated 1997)
Where two headings read alike, the source gives them in different places.

Key:
[1] = system: rat ischemia-reperfusion model; assay: Myocardial necrosis inhibitory effect in rat ischemia-reperfusion model; format: in vivo; design: LDH / CK: unit not given here; conditions: mean ± standard error; for NA/RA: necrosis area/risk area; for CK: serum creatine kinase activity after reflow; for LDH: serum lactate dehydrogenase activity after reflow
Protocol: Male Sprague Dawley rats weighing 270 to 410 g were anesthetized with sodium pentobarbital (50 mg/kg, i.p.) and fixed in the supine position. A canula was inserted into the trachea of each animal. Then the blood pressure of the animal was measured (AP-621G, Nippon Kohden Corp.) through a polyethylene tube (PE50, Becton Dickinson) inserted into the right femoral artery via a pressure transducer (Life Kit DTS, DX-300, Nippon Kohden Corp.) and the heart rate was determined from the pulse wave (AT-610G, Nippon Kohden Corp.). Two canulae (PE10 and PE50, Becton Dickinson) for injecting the maintenance anesthetic drug (sodium pentobarbital 20 mg/kg/h) and a coloring matter respectively were inserted into the right jugular vein. The left jugular vein was exposed for blood collection. The chest was opened by vertically sectioning the chest region from the third to fifth left ribs about 10 mm apart from the median line under artificial respiration with room air (Harvard respirator, model 683, rate : 60 strokes/min. tidal volume : 10 ml/kg body weight). Then the operative field was enlarged with a wound retractor and the heart sac was peeled off to thereby expose the heart. By using a curved round needle with thread for vascular tract (8mm, 6-0 black blaid silk, Matsuda Medical Industry), a thread of 4 to 5 mm in length was put in the left ventricle in the depth of 2 mm for ligating the coronary artery. After the completion of the operation, the animal was allowed to stand as such for 20 minutes or longer. After confirming that the blood pressure and the heart rate had been stabilized, the experiment was initiated.
In this experiment, use was made of eight groups of rats including: 1) a physiological saline (i.e., the solvent for SIN-1) group; 2) an SIN-1 (3 µg/kg/min) group; 3) another SIN-1 (10 µg/kg/min) group; 4) 1% DMSO-containing physiological saline (adjusted to pH 5 with hydrochloric acid, i.e., the solvent for the compounds of Examples 1 and 2) group; 5) a group of the compound of Example 1 (10 µg/kg/min); 6) another group of the compound of Example 1 (30 µg/kg/min); 7) a group of the compound of Example 2 (3 µg/kg/min); and 8) another group of the compound of Example 2 (10 µg/kg/min). Each drug was intravenously administered continuously for 75 minutes (from 15 minutes before the ligation of the coronary artery to the completion of the reflow) at a rate of 0.95 ml/h. Fifteen minutes after the initiation of the drug administration, the coronary artery was ligated and maintained for 30 minutes. The coronary artery was ligated by the snare method with the use of a polyethylene tube (PE160, Becton Dickinson) and a vascular clamp (C-17 grooved, Natsume). After 30-minutes reflow, the risk area (RA) and the necrosis area (NA) were measured.
The risk area and the necrosis area formed by ligating the coronary artery were measured by the double staining method with Evans blue and triphenyltetrazolium chloride (TTC) in the following manner. To clarify the risk area, the coronary artery was ligated again after the completion of the reflow. Subsequently, 1 ml of 5% Evans blue (Sigma) and a 1 M solution of KCl were successively injected into the jugular vein until the heart arrest. Thus, the non-risk area was stained dark blue. After the heart arrest, the heart was quickly taken out and washed with physiological saline. Then the left ventricle was separated and cut into circular slices of 3 mm in width with a trimming blade (Feather). To decide the necrosis area, these slices were incubated in a 0.1 M phosphate buffer (81 mM Na2HPO4: 19 mM NaH2PO4, pH 7.4) containing 1% TTC at 37°C for 5 minutes. Thus, living cells were exclusively stained red with TTC while the necrosis area was not stained. After staining with TTC, each wet slice was weighed, fixed with 20% formalin and then photographed while allowing to stand in physiological saline. […]

[2] = system: anesthetized rat; assay: Blood pressure-lowering effect in anesthetized rat; format: in vivo; conditions: duodenal administration; for Blood pressure-lowering effect ED30: dose causing a decrease in the blood pressure by 30%; for Blood pressure-lowering effect Half duration: half duration at ED30 (recovery to 50% of the maximum decrease in blood pressure)
Protocol: Male Sprague Dawley rats weighing 280 to 450 g were anesthetized with sodium pentobarbital (50 mg/kg, i.p.) and fixed in the supine position. A canula was inserted into the trachea of each animal. Then the blood pressure of the animal was measured (AP-621G, Nippon Kohden Corp.) through a polyethylene tube (PE50) inserted into the right femoral artery via a pressure transducer (Life Kit DTS, DX-300, Nippon Kohden Corp.) and the heart rate was determined from the pulse wave (AT-610G, Nippon Kohden Corp.). A canula (PE10) for injecting the maintenance anesthetic drug (sodium pentobarbital 20 mg/kg/h) was inserted into the right femoral vein. The abdominal region was medianly sectioned and a canula (PE50 connected to a injection needle 23G) for duodenal drug administration was inserted thereinto and fixed with Aronalpha for surgical use. After 60-90 minutes of recovery period, the drug was administered into duodenum. After administering the drug, the blood pressure was measured until the average blood pressure returned to the level before the administration.
As the indication of the blood pressure-lowering effect of each drug, the dose causing a decrease in the blood pressure by 30%, based on the level before the administration, was calculated from the dose-response curve and employed as the 30% effective dose (ED30). Moreover, the time required for the recovery to the level corresponding to 50% of the maximum decrease in the blood pressure (half duration) was measured at each dose. Then the half duration at the above-mentioned ED30 was calculated and employed as the indication of the lasting time of the blood pressure-lowering effect (half duration at ED30).
As the test compounds, use was made of the compounds of the present invention obtained in the above Examples. Table C summarizes the results. Table C

[3] = system: isolated rat aorta; assay: Test with the use of isolated rat aorta (relaxation of potassium chloride contraction); conditions: read-out: Rat aorta IC50
Protocol: The thoracic aorta was taken out from male Sprague Dawley rats weighing 450 to 600 g and cut into circular samples of 2 mm in width. […] The contraction reactions of the samples were isometrically recorded with FD pick-up. After 1 to 1.5 hours of equilibration, 30 mM potassium chloride was added to contract the tissue. […] As the test compounds, the invention compounds obtained in the above Examples were employed.

[4] = system: platelet rich plasma (PRP); assay: Inhibitory effect on platelet aggregation in rabbit; format: cell-based; conditions: Oryctolagus cuniculus, aggregation agent arachidonic acid, pre-incubated for 3 minutes, invention compound n = 1 - 3, aspirin n = 7, read-out: Rabbit antiplatelet aggregation effect IC50
Protocol: Male JW/CSK rabbits weighing 2.6 to 3.1 kg were anesthetized with thiopental (20 mg/kg). Then the blood of each animal was collected from the left carotid artery into a container containing a 3.8% solution of citric acid (9 : 1 v/v). The collected blood was immediately centrifuged at room temperature at 1,300 rpm (230 G) for 10 minutes to give a platelet rich plasma (PRP). Further, a required amount of the blood was centrifuged at 3,000 rpm (1,300 G) for 15 minutes to give a platelet poor plasma (PPP). The PRP to be used in the platelet aggregation test was diluted with PPP to adjust the platelet count to 3 x 10^8. The aggregability was measured by using a platelet aggregation measuring device (TE-500, ERMA) with the use of arachidonic acid ([…]) as an aggregation agent. Each test compound was mixed with PRP and pre-incubated for 3 minutes. Next, the aggregation agent was added thereto and the aggregability was measured for 5 minutes. Thus, the activity of the test compound was evaluated by determining the 50% inhibitory concentration (IC50; µM) thereof to the maximum aggregation induced by the arachidonic acid. As the test compounds, the compounds of the present invention obtained in the above Examples were employed. As a control drug, use was made of aspirin which has been widely known as a platelet aggregation inhinitor. Table E summarizes the results. Table E

[5] = system: rat A-V shunt model; assay: Effect on blood coagulability in rat A-V shunt model; format: in vivo; conditions: 10 mg/kg p.o.; from 75 minutes to 2 hours after administration; mean ± S.E. (n = 6)
Protocol: Rat A-V shunts models were prepared by reference to the method of Umezu et al. (Thrombos Haemostas. 1978:39:74 - 83). Male SD rats were anesthetized with sodium pentobarbital (50 mg/kg, i.p.) and fixed in the supine position. A thick polyethylene tube (6 cm; Hibiki No. 7, Kunii Co.) containing a silk suture thread was connected at both ends to another thin polyethylene tube (10 cm, Hibiki No. 4, Kunii Co.) and then inserted into the left common carotid artery and the right internal jugular vein of the rat so as to form an external blood circulation system (A-V Shunt). The blood was circulated within the shunt system for 15 minutes and then the blood coagulates adhering to the silk suture thread in the thick tube was weighed. After repeating this operation thrice, the total weight was determined and the activity of each test compound was evaluated based thereon.
In this experiment, the anti-aggregation effects achieved from 75 minutes to 2 hours after the peroral administration were examined in a vehicle group (0.3% carboxymethyl cellulose, hereinafter referred to simply as CMC; n = 6), a group of the compound of Example 2 (10 mg/kg; n = 6) and a group of FK-409 (10 mg/kg; n = 6) which had been reported as being capable of inhibiting the formation of blood coagulates (European Journal of Pharmacology, 1995:272:39 - 43). Table F summarizes the results. Table F […]

[6] = 10 µg/kg/min intravenously for 75 minutes
[7] = 30 µg/kg/min intravenously for 75 minutes
[8] = 3 µg/kg/min intravenously for 75 minutes

Work on `CN1CCN([n+]2cc([N-]C(=O)CSc3cc(C(C)(C)C)c(O)c(C(C)(C)C)c3)on2)CC1` [Example 1, N-((3,5-Di-t-butyl-4-hydroxyphenylthio)acetyl)-3-(4-methylpiperazin-1-yl)sydnonimine] yielded an NA/RA [1, 6] of 33.4±6.1%, a CK [1, 6] of 3237±803 and an LDH [1, 6] of 1538±254. It also gave an NA/RA [1, 7] of 22.3±6.1 p<0.01 vs. 4%, a CK [1, 7] of 2772±496 and an LDH [1, 7] of 1339±343. For the same molecule, the “Blood pressure-lowering effect ED30” value [2] was 5.5 mg/kg, the “Blood pressure-lowering effect Half duration” value [2] was 151 min and the IC50 [3] was 650 nM.
`COc1ccc(C(=O)SCCC(=O)[N-]c2c[n+](N3CCN(C)CC3)no2)cc1` [Example 139, N-(3-(4-Methoxybenzoylthio)propionyl)-3-(4-methylpiperazin-1-yl)sydnonimine] showed an IC50 [4] of 15.8 µM.
`CCN1CCN([n+]2cc([N-]C(=O)CSC(=O)C3(C)CCc4c(C)c(O)c(C)c(C)c4O3)on2)CC1` (stereo not shown) [Example 192, N-((6-Hydroxy-2,5,7,8-tetramethylchroman-2-carbonylthio)acetyl)-3-(4-ethylpiperazin-1-yl)sydnonimine] gave an IC50 [4] of 3.9 µM.
Molecule `CC(C)N1CCN([n+]2cc([N-]C(=O)CSC(=O)c3ccccc3)on2)CC1` [Example 88, N-(Benzoylthioacetyl)-3-(4-isopropylpiperazin-1-yl)sydnonimine] has an IC50 [4] of 1.1 µM.
With `CC(=O)Oc1ccccc1C(=O)O` [aspirin, reference compound] the IC50 [4] was 27.5 µM.
In the case of `CCN1CCN([n+]2cc([N-]C(=O)[C@H](C)CSC(=O)c3ccccc3)on2)CC1` [Example 68, N-((S)-3-(Benzoylthio)isobutyryl)-3-(4-ethylpiperazin-1-yl)sydnonimine], the IC50 [4] is reported as 10.5 µM.
`C[C@H](CSC(=O)c1ccccc1)C(=O)[N-]c1c[n+](N2CCN(C)CC2)no1` [Example 2, N-((S)-3-(Benzoylthio)isobutyryl)-3-(4-methylpiperazin-1-yl)sydnonimine] was tested, and the IC50 [4] was 15.8 µM.
In the case of `Cl.N=c1c[n+](N2CCOCC2)[n-]o1` [SIN-1, 3-morpholinosydnonimine hydrochloride, reference compound], the NA/RA [1, 8] is reported as 18.5±4.3%, the CK [1, 8] is reported as 3138±207 and the LDH [1, 8] is reported as 1082±60. The NA/RA [1, 6] was 19.3±5.2%, the CK [1, 6] was 2853±507 and the LDH [1, 6] was 1196±166. For the same molecule, the “Blood pressure-lowering effect ED30” value [2] was 1.0 mg/kg, the “Blood pressure-lowering effect Half duration” value [2] was 75 min and the IC50 ([3]; relaxation of continuous contraction due to 30 mM potassium chloride, thoracic aorta of male Sprague Dawley rats) was 850 nM.
With `CC/C(=C\C(=N/O)C(N)=O)C(C)[N+](=O)[O-]` (stereo not shown) [FK409] the “Blood coagulability in rat A-V shunt model p.o. administration; wt. (mg) of coagulates” value [5] was 89.17 ± 8.43 mg.
`CC(=O)SCC(=O)[N-]c1c[n+](N2CCN(C(C)C)CC2)no1` [Example 86, N-(Acetylthioacetyl)-3-(4-isopropylpiperazin-1-yl)sydnonimine] was tested, and the IC50 [4] was 1.3 µM.
With `CN1CCN([n+]2cc([N-]C(=O)CCSC(=O)c3ccc(F)cc3)on2)CC1` [Example 135, N-(3-(4-Fluorobenzoylthio)propionyl)-3-(4-methylpiperazin-1-yl)sydnonimine] the IC50 [4] was 12.9 µM.
Work on `CN1CCN([n+]2cc([N-]C(=O)CSC(=O)c3ccccc3)on2)CC1` [Example 3, N-((Benzoylthio)acetyl)-3-(4-methylpiperazin-1-yl)sydnonimine] yielded an IC50 [4] of 2.7 µM.
